Measurements: paper PMC4961418, “A Selective Irreversible Inhibitor of Furin Does Not Prevent Pseudomonas Aeruginosa Exotoxin A-Induced Airway Epithelial Cytotoxicity” (PLoS ONE, 2016)
pKi: −log10 of the molar value. Side chains are listed from the residue outwards. Peptide text beside a SMILES is read from it. * marks the point of attachment. Biotin = O=C1N[C@H]2[C@H](CS[C@H]2CCCCC(=O)*)N1; X1 = N=C(N)NCCCC(N*)P(=O)(Oc1ccccc1)Oc1ccccc1; Palmitoyl = CCCCCCCCCCCCCCCC(=O)*; Ahx = NCCCCCC(=O)O

Key:
recombinant human furin [1] = molecular target: T1, recombinant human furin (Homo sapiens, UniProt P09958); experiment: Second order rate constant determination, steady-state fluorimetric assay (pERTKR-NH2Mec); type: biochemical; settings: irreversible inhibitor kinetics, 50 μM pERTKR-NH2Mec, 37°C, pH 7.4
T1 construct: purchased R&D Systems
Description: A range of final inhibitor concentrations (at least 5) were prepared from a 10 mM stock solution of QUB-F1 (in N,N-dimethyformamide (DMF)). The fluorogenic substrate, p-Glu-Arg-Thr-Lys-Arg-NH2Mec (pERTKR-AMC), was diluted in assay buffer (25 mM Tris/HCl containing 1 mM CaCl2, pH 7.4) and used at a fixed concentration of 50 μM throughout. All inhibition assays were performed in microtitre plates maintained at 37°C in a final volume of 100 μl. The reaction was initiated by the addition of recombinant human furin (0.01 μg/well) and the rate of substrate hydrolysis continuously recorded at λex 360 nm, λem 480 nm, over a period of 90 minutes using a FLUOstar Optima microplate reader (BMG Labtech). The resultant inhibition progress curve for QUB-F1 was then analysed according to the kinetic models developed by Tian and Tsou and Walker and Elmore, for irreversible inhibitors, using GRAFIT (Erithacus Software). The inhibitor constant Ki, the apparent first order rate constant k3, and over all second-order rate constant (k3/Ki) for QUB-F1 against furin was determined, from a plot of 1/A against [I] (where A is the apparent second-order rate constant for irreversible inhibition determined for each inhibitor concentration [I]). The determination of Km and Vmax were also determined separately by fitting initial rates of hydrolysis to substrate concentration, according to Michaelis-Menten kinetics, also using GRAFIT (Erithacus Software). The inhibitor constant Ki, the apparent first order rate constant k3, and the overall second-order rate constant (k3/Ki) for QUB-F1 against furin were determined, from a plot of 1/A against [I] (where A is the apparent second-order rate constant for irreversible inhibition determined for each inhibitor concentration [I]).
The ability of QUB-F1 to inhibit recombinant human furin was assessed using a steady-state fluorimetric assay employing the cognate fluorescent substrate (pERTKR-NH2Mec). The k3, Ki and k3/Ki values where determined as follows: Ki 9.33 (± 0.32) x 10^−7 M, k3 0.016 (± 0.004) min^-1 and k3/Ki […] M^-1 min^-1. […]

prostasin = molecular target: T2, prostasin (Homo sapiens, UniProt Q16651); experiment: Fluorogenic protease activity assay, prostasin; type: biochemical; settings: 10 μM inhibitor, Boc-Gln-Ala-Arg-NH2Mec 50 μM, N = 3
T2 construct: purchased Sino Biological
Source text: (§1) Recombinant human enzymes were sourced as follows: furin and matriptase (R&D Systems); prostasin (Sino Biological); trypsin and chymotrypsin (Sigma-Aldrich); factor Xa and neutrophil elastase (Merck Millipore) and proteinase-3 and cathepsin G (Elastin Products, Missouri). Fluorogenic substrates were sourced as follows: p-Glu-Arg-Thr-Lys-Arg-NH2Mec and Boc-Gln-Ala-Arg-NH2Mec (R&D Systems); Boc-Ile-Glu-Gly-Arg-NH2Mec (Bachem); Z-Gly-Gly-Arg-NH2Mec, MeOSuc-Ala-Ala-Pro-Val-NH2Mec and Suc-Ala-Ala-Pro-Phe-NH2Mec (Sigma-Aldrich). All chemicals and reagents for the synthesis of QUB-F1 were supplied by Sigma-Aldrich unless otherwise indicated. Fmoc-Lys(Boc)-SASRIN resin was sourced from Bachem. Fmoc-protected amino acids and HCTU were supplied by Merck Millipore.
(§2) Recombinant protease activities were assessed using the cognate fluorogenic substrates (final concentration 50 μM) as follows: trypsin (Z-Gly-Gly-Arg-NH2Mec), prostasin and matriptase (Boc-Gln-Ala-Arg-NH2Mec), factor Xa (Boc-Ile-Glu-Gly-Arg-NH2Mec), neutrophil elastase and proteinase 3 (MeO-Suc-Ala-Ala-Pro-Val-NH2Mec), chymotrypsin and cathepsin G (Suc-Ala-Ala-Pro-Phe-NH2Mec). The rate of substrate hydrolysis in the presence or absence of furin inhibitors was assessed by continuous recording at λex 360 nm, λem 480 nm, over a period of 60 minutes using a FLUOstar Optima microplate reader (BMG Labtech). […]

factor Xa = molecular target: T3, factor Xa (Homo sapiens, UniProt P00742); experiment: Fluorogenic protease activity assay, factor Xa; type: biochemical; settings: 10 μM inhibitor, Boc-Ile-Glu-Gly-Arg-NH2Mec 50 μM, N = 3
T3 construct: factor Xa and neutrophil elastase (Merck Millipore); purchased Merck Millipore
Source text: as §1, §2

cathepsin B = cathepsin B (Homo sapiens, UniProt P07858); experiment: Cathepsin B activity assay; type: biochemical; settings: up to and including a concentration of 10 μM, N = 3
Description: Fig 3 Comparison of QUB-F1 and furin I versus cathepsin B. Cathepsin B activity was assessed in the presence or absence of various concentrations of QUB-F1 or furin I (N = 3). Data represent mean ± s.e.m.

recombinant human furin [2] = molecular target: T1, recombinant human furin; experiment: Western blot with streptavidin-HRP of inhibitor-furin complex; type: binding; settings: QUB-F1 100 μM, furin 0.4 μg, reducing and denaturing conditions
Description: Recombinant human furin (0.4 μg) was incubated with QUB-F1 (100 μM) for 45 minutes at 37°C. The sample was then denatured and reduced in Laemmli treatment buffer for 5 minutes at 95°C, resolved by SDS-PAGE, before transfer onto a nitrocellulose membrane which was blocked with a solution of Tris-buffered saline (TBS) containing 3% (w/v) bovine serum albumin and 0.1% (v/v) Tween-20. The membrane was subsequently probed with a streptavidin-Horseradish peroxidase conjugate (1:10,000) (Vector-Laboratories) in blocking solution for 1 h prior to detection by chemiluminescence (Luminata Forte Western HRP substrate (Millipore)).
Fig 1 Irreversible inhibition and visualization of recombinant human furin by QUB-F1. […] The inhibitor-proteases complex can be visualized using streptavidin-HRP, which detects the biotin reporter group on the compound.

T1 sequence (P09958 108-794): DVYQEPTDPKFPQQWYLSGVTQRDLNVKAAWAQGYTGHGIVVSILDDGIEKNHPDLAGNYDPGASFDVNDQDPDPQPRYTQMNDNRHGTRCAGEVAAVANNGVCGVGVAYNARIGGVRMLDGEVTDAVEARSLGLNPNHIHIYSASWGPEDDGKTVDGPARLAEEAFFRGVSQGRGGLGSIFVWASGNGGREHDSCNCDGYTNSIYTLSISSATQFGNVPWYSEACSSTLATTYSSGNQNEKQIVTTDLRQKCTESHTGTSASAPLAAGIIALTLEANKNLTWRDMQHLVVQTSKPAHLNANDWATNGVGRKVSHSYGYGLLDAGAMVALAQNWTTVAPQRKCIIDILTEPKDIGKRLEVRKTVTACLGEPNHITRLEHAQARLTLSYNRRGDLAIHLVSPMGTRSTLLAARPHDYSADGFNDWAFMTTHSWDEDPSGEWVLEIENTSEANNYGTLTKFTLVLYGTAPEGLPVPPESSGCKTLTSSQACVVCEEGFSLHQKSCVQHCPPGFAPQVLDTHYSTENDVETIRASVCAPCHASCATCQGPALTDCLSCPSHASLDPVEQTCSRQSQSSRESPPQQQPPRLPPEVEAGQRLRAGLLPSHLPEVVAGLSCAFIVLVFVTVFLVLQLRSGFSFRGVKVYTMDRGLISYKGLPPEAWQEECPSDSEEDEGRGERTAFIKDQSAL
T3 sequence (P00742 235-488 limits assumed): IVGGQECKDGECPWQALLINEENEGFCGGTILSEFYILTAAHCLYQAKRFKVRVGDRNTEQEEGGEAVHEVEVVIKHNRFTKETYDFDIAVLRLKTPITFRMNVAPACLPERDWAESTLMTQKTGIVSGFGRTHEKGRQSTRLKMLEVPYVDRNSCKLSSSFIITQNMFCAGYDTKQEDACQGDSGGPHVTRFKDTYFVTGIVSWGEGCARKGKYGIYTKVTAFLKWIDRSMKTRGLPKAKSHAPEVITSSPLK
T3 sequence (P00742 41-179 partner limits assumed): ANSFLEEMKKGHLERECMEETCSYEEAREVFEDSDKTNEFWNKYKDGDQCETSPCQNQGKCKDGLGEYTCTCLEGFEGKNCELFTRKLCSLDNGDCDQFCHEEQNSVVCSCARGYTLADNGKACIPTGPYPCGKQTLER
T2 sequence (Q16651 33-343): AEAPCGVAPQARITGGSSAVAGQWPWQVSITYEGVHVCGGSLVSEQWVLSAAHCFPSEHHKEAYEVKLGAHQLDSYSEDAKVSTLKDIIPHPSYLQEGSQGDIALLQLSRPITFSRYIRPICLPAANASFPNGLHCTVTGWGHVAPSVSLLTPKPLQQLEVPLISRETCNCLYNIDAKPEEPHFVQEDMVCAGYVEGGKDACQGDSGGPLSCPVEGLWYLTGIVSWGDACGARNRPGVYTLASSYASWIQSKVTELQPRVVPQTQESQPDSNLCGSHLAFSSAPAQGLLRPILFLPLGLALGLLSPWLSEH

With `CCCCCCCCCCCCCCCC(=O)N[C@@H](CCCCNC(=O)CCCCCNC(=O)CCCC[C@@H]1SC[C@@H]2NC(=O)N[C@@H]21)C(=O)N[C@@H](CCCNC(=N)N)C(=O)N[C@H](C(=O)N[C@@H](CCCCN)C(=O)NC(CCCNC(=N)N)P(=O)(Oc1ccccc1)Oc1ccccc1)C(C)C` (stereo partly drawn) [QUB-F1, N^α-Pal-N^ω-(Biotinyl-Ahx)-Lys-RVKR^P(OPh)2] (Palmitoyl-K([Ahx-Biotin])RVK-X1) the pKi (recombinant human furin [1]) was 6.03, the “k3 (apparent first order rate constant)” value (recombinant human furin [1]) was 0.016 (± 0.004) min^-1 and the kinact/KI (recombinant human furin [1]; read-out: k3/Ki (overall second-order rate constant) (converted)) was 342 M⁻¹ s⁻¹. For the same molecule, the inhibition of prostasin (prostasin) was “did not”, the “inhibition of factor Xa” value (factor Xa) was “did not” and the “inhibitory action on cathepsin B” value (cathepsin B) was “no inhibitory action”. For the same molecule, the “irreversible binding to furin (visualized by streptavidin-HRP)” value (recombinant human furin [2]) was “irreversibly bound”.
